Earlier results as cited in patent US6455557B1 (Elan Pharmaceuticals, Inc., priority 2001, dated 2002).
Read-outs that look alike come from different tables or passages of the source.

What was measured:
[1] = not given; remark: listed apart in the source
[2] = not given; remark: listed apart in the source
plasma proteins = conditions: independent of concentration over the therapeutic range
[3] = oral administration, tablet formulation

## Clc1cccc(Cl)c1N=C1NCCN1 [clonidine]
human, in vivo
  Efficacy in treating spastic conditions: ineffective

## Clc1ccc2nsnc2c1NC1=NCCN1 [tizanidine, 5-chloro-4-(2-imidazolin-2-ylamino)-2,1,3-benzothiadiazole]
[1]; in vivo
  Fraction of an administered dose metabolized: approximately 95%
[1]; intravenous administration, healthy adult volunteers
  Mean steady state volume of distribution: 2.4 L/kg
[1]; oral
  Absolute oral bioavailability: approximately 40%
[1]; [3]
  Half-life: approximately 2.5 hours
  Time of peak plasma concentrations after dosing: 1.5 h
[1]; over a dose of 1 to 20 mg
  Dose linearity of pharmacokinetics: linear pharmacokinetics
[1]; tablet formulation, with food
  Extent of tizanidine absorption with food: not affected
  Increase of Cmax by food: approximately one-third
  Shortening of time to peak concentration by food: approximately 40 minutes
[2]; multiple dose, controlled clinical studies
  Sedation cases rated as severe: 10%
[2]; multiple dose, controlled clinical studies, any dose
  Patients reporting sedation as an adverse event: 48%
[2]; single dose of 8 mg
  Patients continuing to report drowsiness 6 hours following dosing: 13%
[2]; single dose of 16 mg
  Patients continuing to report drowsiness 6 hours following dosing: 51%
[2]; single dose study
  Onset of drowsiness following dosing: 30 min
  Peak of drowsiness following dosing: 1.5 h
[2]; single dose study, 8 mg
  Patients reporting that they were drowsy during the 6 hour study: 76%
[2]; single dose study, 16 mg
  Patients reporting that they were drowsy during the 6 hour study: 92%
patients
  Muscle strength, as assessed by objective means: not to be adversely affected
  Spasm frequency and clonus: reduced
  Subjective muscle weakness compared with baclofen or diazepam recipients: reported less often
Some studies
  Time of maximum anti-spastic effects after administration: ≤ 2 h
Plasma proteins
  Bound to plasma proteins: approximately 30%
